Key:
[1] = test system: peptide-specific T cells in patient-derived peripheral blood mononuclear cells (PBMC); format: cell-based, human (HLA-A*0201 HCV positive patient); conditions: for Counts-mean size >10 / Counts-mean size >25 / Counts-mean size >75: IFN-g ELIspot spot counts, Patient, Plate 11_01_03, patient-derived PBMC; for Counts-mean size >10: spot size >10; for Counts-mean size >25: spot size >25; for Counts-mean size >75: spot size >75; for number of peptide-specific T cells (IFN-g Elispot): PBMC of patient cured of chronic HCV infection, frozen 1996 (Table 5, FIG. 3)
From the text: Since those ncORF peptides are immunogenic in tg-mice, the present peptides were ananlysed in an ELIspot assay on PBL's from HCV+ patients.
Patient-derived peripheral blood mononuclear cells (PBMC) frozen in 1996 were thawed to perform an IFN-g Elispot assay with the following peptides: […]

[2] = test system: peptide-specific IFN-γ producing cells; design: species or system C57B1/6 mice; conditions: mouse, in vivo, sc

| Sequence | Counts-mean size >10 [1] | Counts-mean size >25 [1] | Counts-mean size >75 [1] | number of peptide-specific T cells (IFN-g Elispot) [1] | peptide-specific IFN-γ spots (ELIspot) [2] |
| --- | --- | --- | --- | --- | --- |
| LLLQRWALV [Ipep 1372] | 43 | 36 | 13 | high numbers of peptide-specific T cells | – |
| VTILNLALL [p1664] | – | – | – | – | specifically release IFN-γ |
| TMLYNKMEF [p1569] | – | – | – | – | specifically release IFN-γ |
| IASNENMETM [p1574, reference compound] | – | – | – | – | do not show any specific spots |
| SSIAAQDAL [p1600] | – | – | – | – | do not show any specific spots |
| FMLGALLPI [Ipep 1373] | 159 | 86 | 3 | high numbers of peptide-specific T cells | – |
| TLWAGPLLKV [Ipep 1371] | 24 | 15 | 2 | high numbers of peptide-specific T cells | – |

— patent US7528223B2 (priority 2002, dated 2009)
